Measured values reported in publication PMC11547505 (Molecules, 2024).
Where two headings read alike, the source gives them in different places.

Experiments:
SARS-CoV-2 [1] = test system: SARS-CoV-2; design: method as in PMID 33290767, PMID 35456990, PMID 33671463; conditions: Vero cells; read-out: IC50 against SARS-CoV-2; cited from earlier work
[2] = target: SARS-CoV-2 2′-O-MTase (Nsp10–16) (Severe acute respiratory syndrome coronavirus 2, UniProt P0DTD1); test: MTaseGlo coupled assay of Nsp10–16 RNA methyltransferase activity; assay type: biochemical; conditions: 25 nM Nsp10–16, 300 nM Cap-0 RNA, 5 µM SAM, 15 min; read-out: 2′-O-MTase Inhibition IC50
SARS-CoV-2 [3] = test: Anti-SARS-CoV-2 virus yield reduction assay (qRT-PCR) on Vero cells; conditions: for Anti-SARS-CoV-2 Activity, % Inhibition at 10 µM: 0.1 MOI, virus yield reduction qRT-PCR; for EC50: read-out: Anti-SARS-CoV-2 Activity, EC50, antiviral dose–response, 2 days post-treatment
in vitro [4] = test: in vitro
in vitro [5] = conditions: African green monkey
SARS-CoV-2 2′-O-MTase = target: SARS-CoV-2 2′-O-MTase; design: method as in PMID 33874769; conditions: control nucleoside-based methyltransferase inhibitor; read-out: 2′-O-MTase Inhibition IC50; cited from earlier work
[6] = peripheral blood mononuclear (PBM) cells

C=C(C)[C@@H]1CCC(C)=C[C@H]1c1c(O)cc(CCCCC)cc1O [CBD, cannabidiol]
IC50 (SARS-CoV-2 [1]): 7.9 µM

Cc1ccc2c(c1)-c1c(ccc(C(=O)c3ccc(O)cc3O)c1O)OC2(C)C [CPM-1, (2,4-dihydroxyphenyl)(1-hydroxy-6,6,9-trimethyl-6H-benzo[c]chromen-2-yl)methanone]
IC50 [2]: 1.5 ± 0.2 µM
Anti-SARS-CoV-2 Activity, % Inhibition at 10 µM (SARS-CoV-2 [3]): 98.9%
EC50 (SARS-CoV-2 [3]): 7.65 µM
CC50 (in vitro [4]): > 100 µM
CC50 (in vitro [5]): > 100 µM

Cc1ccc2c(c1)-c1cc(C(=O)c3ccc(O)cc3O)c(O)cc1OC2(C)C [CPM-2, (2,4-dihydroxyphenyl)(3-hydroxy-6,6,9-trimethyl-6H-benzo[c]chromen-2-yl)methanone]
IC50 [2]: 6.7 ± 0.5 µM
Anti-SARS-CoV-2 Activity, % Inhibition at 10 µM (SARS-CoV-2 [3]): 98.1%
EC50 (SARS-CoV-2 [3]): 8.6 µM
CC50 (in vitro [4]): 41.2 µM
CC50 (in vitro [5]): 55.4 µM

CCC(CC)COC(=O)[C@H](C)N[P@](=O)(OC[C@H]1O[C@@](C#N)(c2ccc3c(N)ncnn23)[C@H](O)[C@@H]1O)Oc1ccccc1 [Remdesivir, reference compound]
Anti-SARS-CoV-2 Activity, % Inhibition at 10 µM (SARS-CoV-2 [3]): 99.9%
EC50 (SARS-CoV-2 [3]): 2.3 µM
CC50 (in vitro [4]; [6]): 2 µM
CC50 (in vitro [5]; Vero cells (kidney)): > 100 µM

Nc1ncnc2c1ncn2[C@@H]1O[C@H](C[C@@H](N)CC[C@H](N)C(=O)O)[C@@H](O)[C@H]1O [Sinefungin]
IC50 (SARS-CoV-2 2′-O-MTase): 3.4 ± 0.4 µM

CC1=CC[C@@H]2[C@@H](C1)c1c(ccc(C(=O)c3ccc(O)cc3O)c1O)OC2(C)C [TPM-1, (2,4-dihydroxyphenyl)((6aR,10aR)-1-hydroxy-6,6,9-trimethyl-6a,7,10,10a-tetrahydro-6H-benzo[c]chromen-2-yl)methanone]
IC50 [2]: 2.8 ± 0.5 µM
Anti-SARS-CoV-2 Activity, % Inhibition at 10 µM (SARS-CoV-2 [3]): 99.3%
EC50 (SARS-CoV-2 [3]): 4.3 µM
CC50 (in vitro [4]; [6]): 59.2 µM
CC50 (in vitro [5]; Vero cells (kidney)): 13.2 µM

CC1=CC[C@@H]2[C@@H](C1)c1cc(C(=O)c3ccc(O)cc3O)c(O)cc1OC2(C)C [TPM-2, (2,4-dihydroxyphenyl)((6aR,10aR)-3-hydroxy-6,6,9-trimethyl-6a,7,10,10a-tetrahydro-6H-benzo[c]chromen-2-yl)methanone]
IC50 [2]: 6.4 ± 1.5 µM
Anti-SARS-CoV-2 Activity, % Inhibition at 10 µM (SARS-CoV-2 [3]): 98.9%
EC50 (SARS-CoV-2 [3]): 7.8 µM
CC50 (in vitro [4]; [6]): 34.9 µM
CC50 (in vitro [5]; Vero cells (kidney)): 45.2 µM

CCCCCc1cc(O)c2c(c1)OC(C)(C)[C@@H]1CCC(C)=C[C@@H]21 [Δ^9-THC, delta-9-tetrahydrocannabinol]
IC50 (SARS-CoV-2 [1]): 10.3 µM
